Laboratory results from US10508120B2, “TYK2 inhibitors and uses thereof” (Nimbus Lakshmi, Inc., priority 2017, dated 2019).

What was measured:
[1] = target: human TYK2 (JH2domain-pseudokinase) (Homo sapiens (Human), UniProt P29597); assay: TYK2 JH2 Domain Binding Assay (KINOMEscan)
Procedure, shortened: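 Competition binding of an NFkB-DBD fusion of human TYK2 JH2 (G556–D888), expressed in HEK293 and used as crude extract at <0.1 nM, against immobilized ligand beads; 1 h at room temperature in PBS/Tween/DTT/BSA buffer, 0.9% DMSO.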

Tyk2 kinase domain (DH1) = Tyk2 kinase domain (DH1) (Homo sapiens (Human), UniProt P29597); assay: Tyk2 Radioactive Kinase Assay; format: biochemical; settings: compound at 10 μM; ATP 10 μM; read-out: Tyk2 JH1% Inhibition @ 10 μM
Tyk2 kinase domain (DH1), sequence (P29597 897-1176): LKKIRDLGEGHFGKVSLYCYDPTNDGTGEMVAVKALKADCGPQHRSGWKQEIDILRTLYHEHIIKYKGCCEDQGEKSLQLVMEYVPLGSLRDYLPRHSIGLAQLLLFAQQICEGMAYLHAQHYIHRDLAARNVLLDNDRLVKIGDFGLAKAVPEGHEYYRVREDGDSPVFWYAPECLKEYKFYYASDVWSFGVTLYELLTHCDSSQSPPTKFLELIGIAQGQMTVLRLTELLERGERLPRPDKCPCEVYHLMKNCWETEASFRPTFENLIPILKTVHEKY
Procedure, shortened: (§1)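 Each kinase domain is incubated with test compound at 10 μM. Activity is then measured radiometrically and expressed as percent inhibition relative to uninhibited enzyme.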

JAK2 kinase domain (JH1) = JAK2 kinase domain (JH1) (Homo sapiens (Human), UniProt O60674); assay: JAK2 Radioactive Kinase Assay; format: biochemical; settings: compound at 10 μM; ATP 10 μM; read-out: JAK2 JH1% Inhibition @ 10 μM
JAK2 kinase domain (JH1), sequence (O60674 849-1124): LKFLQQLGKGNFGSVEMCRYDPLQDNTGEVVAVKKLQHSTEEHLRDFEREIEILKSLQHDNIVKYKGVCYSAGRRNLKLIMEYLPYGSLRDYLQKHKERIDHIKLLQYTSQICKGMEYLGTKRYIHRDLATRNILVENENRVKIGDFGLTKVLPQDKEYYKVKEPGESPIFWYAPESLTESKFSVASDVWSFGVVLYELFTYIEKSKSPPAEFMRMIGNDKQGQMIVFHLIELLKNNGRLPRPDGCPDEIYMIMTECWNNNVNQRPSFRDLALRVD
Procedure, shortened: as §1

human TYK2 (JH2domain-pseudokinase), sequence (P29597 556-888): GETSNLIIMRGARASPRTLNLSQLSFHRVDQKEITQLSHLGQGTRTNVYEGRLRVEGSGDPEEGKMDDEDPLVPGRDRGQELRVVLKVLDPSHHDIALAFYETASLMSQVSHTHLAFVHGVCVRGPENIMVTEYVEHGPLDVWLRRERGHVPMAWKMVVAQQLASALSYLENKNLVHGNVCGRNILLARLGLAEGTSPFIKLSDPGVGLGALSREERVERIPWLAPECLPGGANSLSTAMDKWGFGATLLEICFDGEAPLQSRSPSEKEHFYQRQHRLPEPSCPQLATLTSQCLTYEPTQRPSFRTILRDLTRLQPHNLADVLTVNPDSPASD

Row | Compound | Kd [1] [nM] | inhibition at 10 µM (Tyk2 kinase domain (DH1)) [%] | inhibition at 10 µM (JAK2 kinase domain (JH1)) [%]
1 | Cc1cc(Nc2cc(N)n3ncc(C(N)=O)c3n2)cc(N2CCCC2)n1 [I-28] | > 10 | < 50 | < 50
2 | CNc1cc(Nc2cc(C)nc(N3CC[C@@H](OC)C3)c2)nc2c(C(N)=O)cnn12 [I-29] | 1 to 10 | < 50 | < 50
3 | CO[C@@H]1CCN(c2cc(Nc3cc(N)n4ncc(C(N)=O)c4n3)cc(C)n2)C1 [I-30] | 1 to 10 | < 50 | < 50
4 | Cc1cc(Nc2cc(N)n3ncc(C(N)=O)c3n2)c(=O)n(-c2cnn(C)c2)c1 [I-32] | 0.2 to 1 | < 50 | < 50
5 | CCOc1ccc(-n2cccc(Nc3cc(N)n4ncc(C(N)=O)c4n3)c2=O)nn1 [I-33] | 0.2 to 1 | < 50 | < 50
6 | Cc1cc(Nc2cc(N)n3ncc(C(N)=O)c3n2)c(=O)n(-c2ccn(C)n2)c1 [I-34] | 0.2 to 1 | < 50 | < 50
7 | CNc1cc(Nc2cccn(-c3cccc(C(C)(C)O)n3)c2=O)nc2c(C(N)=O)cnn12 [I-37] | < 0.2 | < 50 | < 50
8 | CN(C)C(=O)c1cnc(-n2cccc(Nc3cc(N)n4ncc(C(N)=O)c4n3)c2=O)cn1 [I-38] | 0.2 to 1 | < 50 | < 50
9 | CNc1cc(-c2ccn(-c3ccccc3)n2)nc2c(C(N)=O)cnn12 [I-39, 7-(methylamino)-5-(1-phenyl-1H-pyrazol-3-yl)pyrazolo[1,5-a]pyrimidine-3-carboxamide] | 1 to 10 | < 50 | < 50
10 | CNc1cc(Nc2cc(Cl)cn(C3CNC3)c2=O)nc2c(C(N)=O)cnn12 [I-40] | 0.2 to 1 | < 50 | < 50
11 | CC(C)(O)c1cccc(-n2cccc(Nc3cc(N)n4ncc(C(N)=O)c4n3)c2=O)n1 [I-41] | 1 to 10 | < 50 | < 50
12 | Cc1nccc(-n2cccc(Nc3cc(N)n4ncc(C(N)=O)c4n3)c2=O)n1 [I-42] | 1 to 10 | < 50 | < 50
13 | CNc1cc(Nc2cccn(-c3ccon3)c2=O)nc2c(C(N)=O)cnn12 [I-43, 5-((1-(isoxazol-3-yl)-2-oxo-1,2-dihydropyridin-3-yl)amino)-7-(methylamino)pyrazolo[1,5-a]pyrimidine-3-carboxamide] | < 0.2 | < 50 | < 50
14 | CNc1cc(-c2cnn(-c3ccccc3)c2)nc2c(C(N)=O)cnn12 [I-44] | 0.2 to 1 | < 50 | < 50
15 | CNc1cc(Nc2cccn(-c3ccc(C(=O)N4CCCC4)cn3)c2=O)nc2c(C(N)=O)cnn12 [I-45] | < 0.2 | < 50 | < 50
16 | CNc1cc(Nc2cccn(-c3cc(C)on3)c2=O)nc2c(C(N)=O)cnn12 [I-46] | < 0.2 | < 50 | < 50
17 | CNc1cc(Nc2cccn(-c3ccc(F)cn3)c2=O)nc2c(C(N)=O)cnn12 [I-48] | 0.2 to 1 | < 50 | < 50
18 | CCn1cc(Cl)cc(Nc2cc(N)n3ncc(C(N)=O)c3n2)c1=O [I-49] | 0.2 to 1 | < 50 | < 50
19 | NC(=O)c1cnn2c(N)cc(Nc3cccn([C@H]4CC[C@H](O)CC4)c3=O)nc12 [I-50] | 0.2 to 1 | < 50 | < 50
20 | CNc1cc(Nc2cccn(-c3ccnc(C)n3)c2=O)nc2c(C(N)=O)cnn12 [I-51] | 0.2 to 1 | < 50 | < 50
21 | NC(=O)c1cnn2c(N)cc(Nc3cccn(-c4ccc(F)cn4)c3=O)nc12 [I-52] | 0.2 to 1 | < 50 | < 50
22 | CNc1cc(Nc2cc(C)nc(N3CCCC3=O)c2)nc2c(C(N)=O)cnn12 [I-54] | 1 to 10 | < 50 | < 50

Row | Compound | Kd [1] [nM] | inhibition at 10 µM (Tyk2 kinase domain (DH1)) [%] | inhibition at 10 µM (JAK2 kinase domain (JH1)) [%]
23 | Cc1cc(Nc2cc(N)n3ncc(C(N)=O)c3n2)cc(N2CCCC2=O)n1 [I-55] | > 10 | < 50 | < 50
24 | Cc1cc(Nc2cc(N)n3ncc(C(N)=O)c3n2)cc(N2CC[C@@H](O)C2)n1 [I-56] | > 10 | < 50 | < 50
25 | NC(=O)c1cnn2c(N)cc(Nc3cccn(-c4ccon4)c3=O)nc12 [I-57] | 0.2 to 1 | < 50 | < 50
26 | NC(=O)c1cnn2c(N)cc(Nc3cccc(N4CCCC4=O)n3)nc12 [I-58] | < 0.2 | < 50 | 50 to 70
27 | CNc1cc(Nc2cccn([C@H]3CC[C@H](O)CC3)c2=O)nc2c(C(N)=O)cnn12 [I-59] | < 0.2 | < 50 | < 50
28 | CNc1cc(Nc2cc(C)nc(N3CC[C@@H](O)C3)c2)nc2c(C(N)=O)cnn12 [I-60] | 1 to 10 | < 50 | < 50
29 | CNc1cc(Nc2cc(C)nc(N3CCC[C@@H](O)C3)c2)nc2c(C(N)=O)cnn12 [I-61] | 0.2 to 1 | < 50 | < 50
30 | CNc1cc(Nc2cccn(-c3cnc(C(C)(C)O)cn3)c2=O)nc2c(C(N)=O)cnn12 [I-63] | < 0.2 | < 50 | < 50
31 | Cc1cc(-n2cccc(Nc3cc(N)n4ncc(C(N)=O)c4n3)c2=O)no1 [I-64] | 0.2 to 1 | < 50 | < 50
32 | CNc1cc(Nc2cccc(N3CCOC3=O)n2)nc2c(C(N)=O)cnn12 [I-65] | < 0.2 | < 50 | < 50
33 | NC(=O)c1cnn2c(N)cc(Nc3cccc(N4CCOC4=O)n3)nc12 [I-66] | 0.2 to 1 | < 50 | 50 to 70
34 | CNc1cc(Nc2cccn(C3CCN(CC(F)F)CC3)c2=O)nc2c(C(N)=O)cnn12 [I-67] | < 0.2 | < 50 | < 50
35 | CNc1cc(Nc2cccn([C@H]3CC[C@@H](N4CCOCC4)CC3)c2=O)nc2c(C(N)=O)cnn12 [I-68] | 0.2 to 1 | < 50 | < 50
36 | CNc1cc(Nc2ccnn(-c3ccc(F)cc3)c2=O)nc2c(C(N)=O)cnn12 [I-69] | 0.2 to 1 | < 50 | < 50
37 | NC(=O)c1cnn2c(N)cc(Nc3ccnn(-c4ccc(F)cc4)c3=O)nc12 [I-70, 7-amino-5-((2-(4-fluorophenyl)-3-oxo-2,3-dihydropyridazin-4-yl)amino) pyrazolo[1,5-a]pyrimidine-3-carboxamide] | 1 to 10 | < 50 | < 50
38 | CNc1cc(Nc2cc(Cl)cnc2OC2CCOC2)nc2c(C(N)=O)cnn12 (stereo not drawn) [I-71] | < 0.2 | < 50 | < 50
39 | CNc1cc(Nc2cc(C)nn(-c3cnn(C)c3)c2=O)nc2c(C(N)=O)cnn12 [I-73] | 1 to 10 | < 50 | < 50
40 | Cc1cc(Nc2cc(N)n3ncc(C(N)=O)c3n2)c(=O)n(-c2cnn(C)c2)n1 [I-74] | 0.2 to 1 | < 50 | < 50
41 | CNc1cc(Nc2cc(C)cn(-c3ccnn3C)c2=O)nc2c(C(N)=O)cnn12 [I-75] | 0.2 to 1 | < 50 | < 50
42 | NC(=O)c1cnn2c(N)cc(Nc3cccn([C@H]4CC[C@@H](N5CCOCC5)CC4)c3=O)nc12 [I-76] | 1 to 10 | < 50 | < 50
43 | CC(C)Oc1ncccc1Nc1cc(N)n2ncc(C(N)=O)c2n1 [I-77] | 0.2 to 1 | < 50 | < 50
